The text below walks through data of publication PMC10115881, “Disrupting the α-synuclein-ESCRT interaction with a peptide inhibitor mitigates neurodegeneration in preclinical models of Parkinson’s disease” (Nature Communications, 2023).

The subject of one test is cathepsin B. The test is described as follows: Cathepsin B fluorescence in rat cortical neurons. Type of test: cell-based. Particulars: A53T a-syn. From the text:
Pregnant rats (E17) of the Sprague-Dawley strain were purchased from Envigo. Embryos were surgically removed from the mothers and cortices dissected in Hanks Balanced salt solution (Gibco). The meninges were removed, and cells were dissociated using a papain dissociation system (Worthington) before being resuspended in Neurobasal medium A supplemented with antibiotic-antimycotic solution (Gibco), L-glutamine substitute (GlutaMAX™; Gibco) and factor B27 (Gibco). […]
After fixation, cells were permeabilized with 0.2% Triton-X-100 for 15 min, washed three times with PBS and then incubated with blocking solution (1% BSA, 22.52 mg/mL glycine, 0.1% Tween-20 in PBS or 0.4% saponin, 1% BSA, and 5% goat or donkey serum in PBS) for 1 h. […] Following another three washes with PBS, nuclei were counterstained with DAPI (ThermoFisher) and then coverslips were mounted on slides using Dako fluorescence mounting medium (Agilent) and sealed using clear nail varnish.
Confocal images of primary cortical neurons, iPSC-derived dopaminergic neurons, and LAMP1 staining within the SN were processed using Imaris software (Oxford instruments). […] Mean pixel intensity per GFP^+ cell (for experiments using GFP-tagged peptides) or RFP^+ cell (for experiments using RFP-tagged peptides) was calculated for a-syn or LAMP1 signal using the software’s surfaces module. […]

For the next test, the system named is V1S/SV2 a-syn rats. The test is described as follows: AAV-V1S/SV2 a-syn oligomer rat model. Type of test: in vivo. The procedure:
Adult female Sprague-Dawley rats (250–280 g; Envigo) were pair-housed in cages with wood bedding and had access to food and water ad libitum. The animal colony was maintained in a regular 12 h light/dark cycle. All procedures were approved by the University Health Network Animal Care Committee in accordance with guidelines and regulations set by the Canadian Council on Animal Care (AUP #3818).
Animals were secured in a stereotactic frame under isoflurane/oxygen anesthesia and ketoprofen (5 mg/kg) analgesia. The surgical site was shaved and sterilized with iodine/betadine prior to making a 2 cm incision along the midline. The scalp was exposed and a unilateral injection targeting the SN was performed at coordinates AP −5.2 mm, ML −2 mm and DV −7.5 mm with respect to the bregma as a point of reference. For each animal, a total volume of 2 μl of virus was injected at a rate of 0.5 μl/min using a microinjection pump and 10 μl Hamilton syringe with a 26-gauge needle. […] At the end of virus injection, the needle remained in place for 5 min before gradual removal.
Sections were then incubated in blocking solution (1% or 2% BSA, 10% normal goat serum in PBS-T) for 1 h. After blocking, sections were incubated with primary antibodies in antibody solution (2% normal goat serum in PBS-T) overnight at RT. Sections were then washed in PBS or PBS-T and incubated with secondary antibodies diluted in antibody solution for 1 h in the dark at room temperature. Sections were then mounted onto glass slides and allowed to dry and then Dako fluorescence mounting medium (Agilent) was applied, followed by coverslips.
Confocal images of immunofluorescent staining were acquired with a Zeiss LSM880 confocal microscope equipped with 405, 488, 555, and 639 nm laser lines. All images were taken within the linear range at constant gain and pinhole settings at optimal resolution settings determined by the software. For primary cortical neurons and iPSC-derived dopaminergic neurons, the software was programmed to acquire an image every 1 μm for a total of 11 μm, capturing all of the neurons visible in the z-plane in each field of view using a ×63 objective. At least 30 images were acquired for each treatment group from three independent experiments. For animal experiments, the whole midbrain or striatum regions were imaged using a ×5 or ×10 objective. Ten serial coronal midbrain sections were imaged per animal, separated by 240 μm intervals. […]
Confocal images of immunofluorescent staining of midbrain sections were processed using HALO software (Indica Labs), which is a well validated tool for automatic quantification of neurons in brain tissue sections[70]–[72]. […] Fluorescent intensity and area were then assessed in this ROI.

Values joined by “and” are separate entries in the source; they are usually repeats but may differ in a detail not shown here. Equal entries are not always repeated.

For the sequence DEEIERQLKALG [PDpep1.3], the “Effect on cathepsin B” value in the test on cathepsin B is “reduced to control levels”. Also, the “Effect on a-syn oligomer levels, YFP positive area” value in the test on V1S/SV2 a-syn rats (6 weeks post-injection, SN) is recorded as “significant reduction in a-syn oligomer levels”. Moreover, the “TH fluorescence in striatum” value in the test with V1S/SV2 a-syn rats (V1S/SV2, 6 weeks, individual rats) was 0.2276 and 0.1447 and 0.1385 and 0.1997 and 0.2935 and 0.176 and 0.1626 and 0.2047 and 0.2584 and 0.2974. In the test on V1S/SV2 a-syn rats (V1S/SV2, 6 weeks, n = 8–9 rats/group), the “YFP mean fluorescence intensity in TH+ and RFP+ SN cells” value turned out to be 0.063 ± 0.0167 RFU. In the test with V1S/SV2 a-syn rats (V1S/SV2 rats), the “Effect on pS129 a-syn in striatum” value is reported as “reduced pS129 a-syn accumulation in the striatum”.
